In data set [1] the test system is bloodstream forms of T. brucei clone 427-221a. In words: Trypanocidal assay, resazurin viability assay. In kind it is cell-based, Trypanosoma brucei. The procedure: (§1) All of the cultures were maintained at 37 °C in a humidified atmosphere containing 5% of CO2. Toxicity assays were performed, as previously described, with some modifications. In brief, trypanosomes and HL-60 cells were seeded at an initial cell density of 10^4/mL and 5 × 10^4/mL, respectively, in 96-well plates in a final volume of 200 μL culture medium containing various concentrations of test compounds dissolved in 100% DMSO. […] The controls contained DMSO alone. In all of the experiments, the final DMSO concentration was 0.9%. After 24 h incubation, 20 µL of a 0.5 mM resazurin solution prepared in PBS was added and the cultures were incubated for a further 48 h. Resazurin is a vital dye that, when being reduced by living cells, changes its colour from blue to pink. Thus, by measuring absorbance, the proliferation of cells can be easily determined. The change in absorbance was read with a microplate reader using a test wavelength of 570 nm and a reference wavelength of 630 nm. GI50 values were calculated by linear interpolation according to the method described by Huber and Koella. MIC values were determined microscopically.
For orientation: Alamar Blue is a resazurin reagent that responds to reducing activity.

The next data set in a line: in vitro. As to conditions: human. On the procedure:
as §1

In data set [2] the test system is human myeloid leukemia HL-60 cells. The experiment in a line: in vitro. Conditions: human, 72 h. The procedure:
as §1

Data set [3] deals with S. aureus ATCC 29213 (MSSA). The experiment in a line: Antibacterial liquid microdilution (CLSI M07-A8). In kind it is cell-based, Staphylococcus aureus. As to conditions: 18 to 24 h. On the procedure:
(§2) Organometallic compounds play an increasingly important role in the search for new antibacterial agents. We, therefore, thought to investigate also the bactericidal activity of the newly synthesized cymantrenes 1–7, compound C and CymH. The antibacterial activity of the compounds was tested against Gram-positive methicillin-sensitive Staphylococcus aureus (MSSA), methicillin-resistant S. aureus (MRSA), vancomycin-intermediate S. aureus (VISA), S. epidermidis, and Gram-negative Escherichia coli bacterial strains, and expressed as minimal inhibitory concentration (MIC) values (Table 3).
(§3) The antibacterial activity of CymH, 1–7 and C and the reference drugs penicillin G and polymyxin B was tested by the liquid microdilution method under standard conditions using twofold dilution series, as described in the Clinical and Laboratory Standards Institute (CLSI), reference method M07-A8, and expressed as minimal inhibitory concentration (MIC) values. A panel of Gram-positive bacterial strains, S. aureus ATCC® 29213 (sensitive to methicillin, (MSSA)), S. aureus ATCC® 43300 (resistant to methicillin, (MRSA)), S. aureus ATCC 700787™ (intermediate to vancomycin, (VISA)), and S. epidermidis ATCC 12228™, and one Gram-negative, strain E. coli ATCC BAA-198™ (ESBL) were used. In addition, four clinical isolates of S. aureus (MSSA and MRSA) and two clinical isolates of S. epidermidis that were collected from different patients at the Medical University of Warsaw, Poland, were also tested. The bacterial cells were cultivated on tryptic soy agar (TSA) and nutrient agar (NA), according to ATCC recommendations. All of the strains were incubated at 37 °C. Tested compounds were dissolved in DMSO and then serially diluted twofold with cation-adjusted Mueller-Hinton broth (CAMHB). Then, 95 µL of the dilutions were dispensed into microdilution sterile plates (Mar-Four), followed by the addition of 5 µL of bacteria inoculum containing 5 × 10^4 CFU/mL. The final concentrations of the compounds ranged from 512 to 2 µg/mL. Each compound was tested in triplicate, and Penicillin G (8–0.15 µg/mL) and Polymyxin B (256–0.0625 µg/mL) were used as controls. The plates were incubated at 37 °C for 18 to 24 h depending on the bacterial strain. Thereafter, the absorbance was measured at λ = 540 nm and λ = 595 nm using a Spectrostar Omega microplate reader (BMG Labtech, Offenburg, Germany). The MIC value was defined as the lowest concentration of a compound that reduced the growth by 100%.
(In general: Dilution methods test growth across graded concentrations, often in twofold steps.)

The subject of data set [4] is S. aureus ATCC 43300 (MRSA). The experiment in a line: Antibacterial liquid microdilution (CLSI M07-A8). The data set is classed as cell-based, Staphylococcus aureus. As to conditions: 18 to 24 h. The procedure: as §2, §3
Data set [5] deals with S. aureus ATCC 700787 (VISA). In words: Antibacterial liquid microdilution (CLSI M07-A8). In kind it is cell-based, Staphylococcus aureus. As to conditions: 18 to 24 h. The procedure: as §2, §3
For data set [6], the system named is S. epidermidis ATCC 12228. In words: Antibacterial liquid microdilution (CLSI M07-A8). In kind it is cell-based, Staphylococcus epidermidis. The procedure: as §2, §3
Data set [7] relates to E. coli ATCC BAA-198 (ESBL). In words: Antibacterial liquid microdilution (CLSI M07-A8). In kind it is cell-based, Escherichia coli. The procedure:
as §2, §3

In data set [8] the test system is Clinical S. aureus (MRSA) 31/12. The experiment in a line: Antibacterial liquid microdilution, clinical isolate. The data set is classed as cell-based, Staphylococcus aureus. The procedure:
(§4) This lack of activity against E. coli can be probably explained by an impeded cellular uptake of the compounds through the Gram-negative cell wall that consists of two layers and effective protein efflux pump systems. The antibacterial activities of 1 and C were further tested against four clinical isolates of S. aureus and two clinical isolates of S. epidermidis (Table 4).
as §3

Data set [9] concerns Clinical S. aureus (MRSA) 44/12. Described as above. The data set is classed as cell-based, Staphylococcus aureus. The procedure:
as §4, §3

Data set [10] deals with Clinical S. aureus (MSSA) 26/11. The description is as above. In kind it is cell-based, Staphylococcus aureus. On the procedure: as §4, §3
In data set [11] the test system is Clinical S. aureus (MSSA) 30/11. The data set is described as above. In kind it is cell-based, Staphylococcus aureus. The procedure: as §4, §3
Data set [12] deals with Clinical S. epidermidis (MSSA) 37/12. The data set is described as above. The data set is classed as cell-based, Staphylococcus epidermidis. On the procedure:
as §4, §3

Data set [13] concerns Clinical S. epidermidis (MSSA) 43/12. Described as above. In kind it is cell-based, Staphylococcus epidermidis. On the procedure: as §4, §3

In brackets after ≈: the same amount, converted by molar mass.

As to `Cc1ccc(C(=O)Nc2ccc(S(=O)(=O)O)c3cc(S(=O)(=O)O)cc(S(=O)(=O)O)c23)cc1NC(=O)c1cccc(NC(=O)Nc2cccc(C(=O)Nc3cc(C(=O)Nc4ccc(S(=O)(=O)O)c5cc(S(=O)(=O)O)cc(S(=O)(=O)O)c45)ccc3C)c2)c1` [Suramin, suramin, reference compound], in [1] (Trypanosoma brucei, 50% growth inhibition), halving of growth (GI50) required 39 ± 3 nM. Also, the MIC in data set [1] (Trypanosoma brucei, concentration at which all cells were killed, determined microscopically) fell in the range of 0.1 to 1 µM (≈ 0.13 to 1.3 µg/mL). Further, the “Selectivity GI50 Ratio” value in data set [1] (ratio of cytotoxic (HL-60) to trypanocidal (T. brucei) activity) was more than 2564. Further, the GI50 (in general, the concentration giving 50% growth inhibition) at 72 h in the data set “in vitro” was more than 100000 nM. The “HL-60 MIC” value in data set [2] was more than 100 µM.
For the compound `CC1(C)S[C@@H]2[C@H](NC(=O)Cc3ccccc3)C(=O)N2[C@H]1C(=O)O` [penicillin G, reference compound], the MIC in [3] (Staphylococcus aureus) is 2 µg/mL (≈ 5.98 µM); in [4] (Staphylococcus aureus) it was 16 µg/mL (≈ 47.8 µM); in [5] (Staphylococcus aureus), 32 µg/mL (≈ 95.7 µM); in data set [6] (Staphylococcus epidermidis, ATCC12228, 18 to 24 h) it was 2 µg/mL (≈ 5.98 µM); in data set [7] (Escherichia coli, ATCCBAA198, 18 to 24 h), more than 256 µg/mL; in [8] (Staphylococcus aureus, MRSA), 32 µg/mL (≈ 95.7 µM). Moreover, the MIC came out at 8 µg/mL (≈ 23.9 µM) in data set [9] (Staphylococcus aureus, MRSA); 0.5 µg/mL (≈ 1.5 µM) in [10] (Staphylococcus aureus, MSSA); 2 µg/mL (≈ 5.98 µM) in data set [11] (Staphylococcus aureus, MSSA); 16 µg/mL (≈ 47.8 µM) in data set [12] (Staphylococcus epidermidis, MSSA, read-out: MIC, Clinical S. epidermidis 37/12); 8 µg/mL (≈ 23.9 µM) in [13] (Staphylococcus epidermidis, MSSA).
Consider polymyxin B [reference compound], for which the “MIC, S. aureus ATCC 29213 (MSSA)” value in data set [3] was 256 µg/mL. Besides, the “MIC, S. aureus ATCC 43300 (MRSA)” value in data set [4] was found to be 256 µg/mL. For the same compound, the “MIC, S. aureus ATCC 700787 (VISA)” value in data set [5] was more than 256 µg/mL. Besides, the “MIC, S. epidermidis ATCC 12228” value in [6] (18 to 24 h) was 64 µg/mL. Besides, the “MIC, E. coli ATCC BAA-198” value in data set [7] (18 to 24 h) stood at 0.125 µg/mL. The “MIC, Clinical S. aureus (MRSA) 31/12” value in data set [8] amounted to 256 µg/mL. Besides, in [9], the “MIC, Clinical S. aureus (MRSA) 44/12” value amounted to 256 µg/mL. In addition, the “MIC, Clinical S. aureus (MSSA) 26/11” value in data set [10] turned out to be 256 µg/mL. The “MIC, Clinical S. aureus (MSSA) 30/11” value in data set [11] stood at 256 µg/mL. Besides, the “MIC, Clinical S. epidermidis (MSSA) 37/12” value in [12] stood at 128 µg/mL. Besides, in data set [13], the “MIC, Clinical S. epidermidis (MSSA) 43/12” value was 64 µg/mL.
